Measured values: patent US8735414B2 (priority 2009, dated 2014)

What was measured:
[1] = system: bicistronic HCV replicon (replicon RNA, GenBank Accession No. AJ242654); assay: HCV Replicon Assay; assay type: cell-based; conditions: Hepatitis C virus, 72 h, read-out: Replicon IC50

In the case of C[C@@H](NS(=O)(=O)c1ccc(-c2c(C#N)c3ccc(OC(F)F)cc3n2C2CCCCC2)nc1)C(F)(F)F [compound 195, 6-[3-cyano-1-cyclohexyl-6-(difluoromethoxy)-1H-indol-2-yl]-N-[(2R)-1,1,1-trifluoropropan-2-yl]pyridine-3-sulfonamide], the melting point is reported as 170 to 172 °C and the IC50 [1] is reported as under 500 nM.

In the case of Cc1nc(NS(=O)(=O)C(C)(C)C)ccc1-c1c(C(N)=O)c2cc(F)c(OC(F)F)cc2n1C(C)C [compound 1095, 2-{6-[(tert-butylsulfonyl)amino]-2-methylpyridin-3-yl}-6-(difluoromethoxy)-5-fluoro-1-(propan-2-yl)-1H-indole-3-carboxamide], the melting point is reported as 234 to 235 °C and the IC50 [1] is reported as 500 to 2000 nM.

Work on CC(C)(NS(=O)(=O)c1ccc(-c2c(C#N)c3ccc(CC(F)F)cc3n2C2CCCC2)nc1)C(F)(F)F [compound 596, 6-[3-cyano-1-cyclopentyl-6-(2,2-difluoroethyl)-1H-indol-2-yl]-N-(1,1,1-trifluoro-2-methylpropan-2-yl)pyridine-3-sulfonamide] yielded a melting point of 194 to 199 °C and an IC50 [1] of under 500 nM.

With COc1ccc2c(C#N)c(-c3ncc(S(=O)(=O)N[C@H](C)C(F)(F)F)cn3)n(C3CCC3)c2c1 [compound 183, 2-(3-cyano-1-cyclobutyl-6-methoxy-1H-indol-2-yl)-N-[(2R)-1,1,1-trifluoropropan-2-yl]pyrimidine-5-sulfonamide] the melting point was 147 to 149 °C and the IC50 [1] was 500 to 2000 nM.

In the case of Cc1cc(F)c2c(C#N)c(-c3ccc(S(=O)(=O)NC4(C(F)(F)F)CC4)cn3)n(C3CCCC3)c2c1 [compound 628, 6-(3-cyano-1-cyclopentyl-4-fluoro-6-methyl-1H-indol-2-yl)-N-[1-(trifluoromethyl)cyclopropyl]pyridine-3-sulfonamide], the melting point is reported as 242 to 246 °C and the IC50 [1] is reported as under 500 nM.

In the case of CCc1cc2c(cc1F)c(C#N)c(-c1ccc(S(=O)(=O)N[C@@H](C)C(F)(F)F)cn1)n2-c1cccc(F)n1 [compound 930, 6-[3-cyano-6-ethyl-5-fluoro-1-(6-fluoropyridin-2-yl)-1H-indol-2-yl]-N-[(2S)-1,1,1-trifluoropropan-2-yl]pyridine-3-sulfonamide], the melting point is reported as 205 to 211 °C and the IC50 [1] is reported as under 500 nM.

With C[C@H](NS(=O)(=O)c1ccc(-c2c(C#N)c3cc(F)c(C4CC4)cc3n2-c2ccc(F)cn2)nc1)C(F)(F)F [compound 818, 6-[3-cyano-6-cyclopropyl-5-fluoro-1-(5-fluoropyridin-2-yl)-1H-indol-2-yl]-N-[(2S)-1,1,1-trifluoropropan-2-yl]pyridine-3-sulfonamide] the melting point was 240 to 242 °C and the IC50 [1] was under 500 nM.

In the case of Cc1ccc2c(C#N)c(-c3ncc(S(=O)(=O)NC(CF)CF)cn3)n(C3CCCCC3)c2c1 [compound 241, 2-(3-cyano-1-cyclohexyl-6-methyl-1H-indol-2-yl)-N-(1,3-difluoropropan-2-yl)pyrimidine-5-sulfonamide], the melting point is reported as 225 to 230 °C and the IC50 [1] is reported as under 500 nM.

CCc1cc2c(cc1F)c(C#N)c(-c1ccc(S(=O)(=O)N[C@@H](C)C(F)(F)F)cn1)n2-c1ncc(C)cn1 [compound 976, 6-[3-cyano-6-ethyl-5-fluoro-1-(5-methylpyrimidin-2-yl)-1H-indol-2-yl]-N-[(2S)-1,1,1-trifluoropropan-2-yl]pyridine-3-sulfonamide] showed a melting point of 201 to 206 °C and an IC50 [1] of under 500 nM.

In the case of COc1ccc2c(C#N)c(-c3ncc(S(=O)(=O)N[C@@H](C)C4CC4)cn3)n(C3CCCC3)c2c1 [compound 206, 2-(3-cyano-1-cyclopentyl-6-methoxy-1H-indol-2-yl)-N-[(1S)-1-cyclopropylethyl]pyrimidine-5-sulfonamide], the melting point is reported as 192 to 194 °C and the IC50 [1] is reported as 500 to 2000 nM.

Compound Cc1cc2c(cc1F)c(C#N)c(-c1ccc(S(=O)(=O)NC(C)(C)C)cn1)n2-c1ccccc1 [compound 1108, N-tert-butyl-6-(3-cyano-5-fluoro-6-methyl-1-phenyl-1H-indol-2-yl)pyridine-3-sulfonamide] has a melting point of 200.6 to 202.4 °C and an IC50 [1] of under 500 nM.

Cc1ccc2c(C#N)c(-c3ccc(S(=O)(=O)N[C@@H](C)C(F)(F)F)cn3)n(CC3CC3)c2c1 [compound 353, 6-[3-cyano-1-(cyclopropylmethyl)-6-methyl-1H-indol-2-yl]-N-[(2S)-1,1,1-trifluoropropan-2-yl]pyridine-3-sulfonamide] gave a melting point of 165 to 168 °C and an IC50 [1] of under 500 nM.

In the case of Cc1ccc2c(c1)c(C#N)c(-c1ccc(S(=O)(=O)N[C@@H](C)C(F)(F)F)cn1)n2C1CCCCC1 [compound 560, 6-(3-cyano-1-cyclohexyl-5-methyl-1H-indol-2-yl)-N-[(2S)-1,1,1-trifluoropropan-2-yl]pyridine-3-sulfonamide], the melting point is reported as 175 to 180 °C and the IC50 [1] is reported as under 500 nM.

CC(NS(=O)(=O)c1ccc(-c2c(C#N)c3ccc(OC(F)F)cc3n2C2CCCC2)nc1)C(F)(F)F (centres unmarked) [compound 53, 6-[3-cyano-1-cyclopentyl-6-(difluoromethoxy)-1H-indol-2-yl]-N-(1,1,1-trifluoropropan-2-yl)pyridine-3-sulfonamide] showed a melting point of 189 to 195 °C and an IC50 [1] of under 500 nM.

For C[C@H](NS(=O)(=O)c1cnc(-c2c(C#N)c3ccc(OC(F)F)cc3n2C2CCCCC2)nc1)C(F)(F)F [compound 472, 2-[3-cyano-1-cyclohexyl-6-(difluoromethoxy)-1H-indol-2-yl]-N-[(2S)-1,1,1-trifluoropropan-2-yl]pyrimidine-5-sulfonamide], the melting point was 187 to 189 °C and the IC50 [1] was under 500 nM.

CCc1cc2c(cc1F)c(C#N)c(-c1ccc(S(=O)(=O)N[C@@H](C)C(F)(F)F)cn1)n2-c1ccnc(C)n1 [compound 943, 6-[3-cyano-6-ethyl-5-fluoro-1-(2-methylpyrimidin-4-yl)-1H-indol-2-yl]-N-[(2S)-1,1,1-trifluoropropan-2-yl]pyridine-3-sulfonamide] showed a melting point of 138 to 146 °C and an IC50 [1] of 500 to 2000 nM.

Cc1cc2c(cc1F)c(C(N)=O)c(-c1ccc(S(=O)(=O)NC3(C(F)(F)F)CC3)cn1)n2C1CCCC1 [compound 730, 1-cyclopentyl-5-fluoro-6-methyl-2-(5-{[1-(trifluoromethyl)cyclopropyl]sulfamoyl}pyridin-2-yl)-1H-indole-3-carboxamide] showed a melting point of 220 to 221 °C and an IC50 [1] of under 500 nM.

In the case of CCc1cc2c(cc1F)c(C#N)c(-c1ccc(S(=O)(=O)N[C@@H](C)C(F)(F)F)cn1)n2-c1cccc(F)c1 [compound 1008, 6-[3-cyano-6-ethyl-5-fluoro-1-(3-fluorophenyl)-1H-indol-2-yl]-N-[(2S)-1,1,1-trifluoropropan-2-yl]pyridine-3-sulfonamide], the melting point is reported as 210 to 214 °C and the IC50 [1] is reported as under 500 nM.

CCc1ccc2c(c1)c(C#N)c(-c1ccc(S(=O)(=O)N[C@@H](C)C(F)(F)F)cn1)n2C1CCC1 [compound 339, 6-(3-cyano-1-cyclobutyl-5-ethyl-1H-indol-2-yl)-N-[(2S)-1,1,1-trifluoropropan-2-yl]pyridine-3-sulfonamide] showed a melting point of 168 to 169 °C and an IC50 [1] of under 500 nM.

Cc1cc2c(cc1F)c(C#N)c(-c1ccc(S(=O)(=O)N[C@@H](C)C(F)(F)F)cn1)n2-c1ccc(C(F)(F)F)cn1 [compound 740, 6-{3-cyano-5-fluoro-6-methyl-1-[5-(trifluoromethyl)pyridin-2-yl]-1H-indol-2-yl}-N-[(2S)-1,1,1-trifluoropropan-2-yl]pyridine-3-sulfonamide] showed a melting point of 253 to 255 °C and an IC50 [1] of under 500 nM.

Work on Cc1ccc2c(c1)c(C#N)c(-c1ccc(S(=O)(=O)N[C@@H](C)C(F)(F)F)cn1)n2-c1ncccn1 [compound 843, 6-[3-cyano-5-methyl-1-(pyrimidin-2-yl)-1H-indol-2-yl]-N-[(2S)-1,1,1-trifluoropropan-2-yl]pyridine-3-sulfonamide] yielded a melting point of 174 to 179 °C and an IC50 [1] of under 500 nM.

Work on CC(C)S(=O)(=O)Nc1ccc(-c2c(C#N)c3ccc(OCC(F)(F)F)cc3n2CC2CC2)nc1 [compound 283, N-{6-[3-cyano-1-(cyclopropylmethyl)-6-(2,2,2-trifluoroethoxy)-1H-indol-2-yl]pyridin-3-yl}propane-2-sulfonamide] yielded a melting point of 188 to 193 °C and an IC50 [1] of 2000 to 5000 nM.

With Cc1ccc2c(C#N)c(-c3ccc(S(=O)(=O)NC(CF)CF)cn3)n(CC3CC3)c2c1 [compound 81, 6-[3-cyano-1-(cyclopropylmethyl)-6-methyl-1H-indol-2-yl]-N-(1,3-difluoropropan-2-yl)pyridine-3-sulfonamide] the melting point was 175 to 182 °C and the IC50 [1] was under 500 nM.

CC(C)NS(=O)(=O)c1cnc(-c2c(C#N)c3ccc(OC(F)(F)F)cc3n2C2CCCC2)nc1 [compound 117, 2-[3-cyano-1-cyclopentyl-6-(trifluoromethoxy)-1H-indol-2-yl]-N-(propan-2-yl)pyrimidine-5-sulfonamide] showed a melting point of 216 to 218 °C and an IC50 [1] of 500 to 2000 nM.

In the case of CC(C)NS(=O)(=O)c1ccc(-c2c(C#N)c3cc(F)ccc3n2-c2ccccn2)nc1 [compound 439, 6-[3-cyano-5-fluoro-1-(pyridin-2-yl)-1H-indol-2-yl]-N-(propan-2-yl)pyridine-3-sulfonamide], the melting point is reported as 208 to 210 °C and the IC50 [1] is reported as under 500 nM.

Work on CCc1cc2c(cc1F)c(C#N)c(-c1ccc(S(=O)(=O)NC(CF)CF)cn1)n2C1CCCC1 [compound 639, 6-(3-cyano-1-cyclopentyl-6-ethyl-5-fluoro-1H-indol-2-yl)-N-(1,3-difluoropropan-2-yl)pyridine-3-sulfonamide] yielded a melting point of 179.5 to 180 °C and an IC50 [1] of under 500 nM.

Work on C[C@H](NS(=O)(=O)c1ccc(-c2c(C#N)c3cc(F)c(OC(F)F)cc3n2C2CCCC2)nc1)C(F)(F)F [compound 574, 6-[3-cyano-1-cyclopentyl-6-(difluoromethoxy)-5-fluoro-1H-indol-2-yl]-N-[(2S)-1,1,1-trifluoropropan-2-yl]pyridine-3-sulfonamide] yielded a melting point of 181 to 184 °C and an IC50 [1] of under 500 nM.

Work on Cc1cc2c(cc1Cl)c(C#N)c(-c1ccc(S(=O)(=O)N[C@@H](C)C(F)(F)F)cn1)n2-c1ccccn1 [compound 803, 6-[5-chloro-3-cyano-6-methyl-1-(pyridin-2-yl)-1H-indol-2-yl]-N-[(2S)-1,1,1-trifluoropropan-2-yl]pyridine-3-sulfonamide] yielded a melting point of 210 to 212 °C and an IC50 [1] of under 500 nM.
